# Source: US20240067617A1 (Albireo AB, priority 2022, published 2024)
# Key:
# hIBAT = target: T1, hIBAT (Homo sapiens, UniProt Q12908); assay: IBAT (h/m) assay: 3H-taurocholic acid uptake in human IBAT-overexpressing cells; type: cell-based; settings: 0.25 μM 3H-taurocholic acid + 5 μM cold taurocholic acid, 20 minutes at 37° C., highest test concentration 10 μM
# T1 construct: expressed in transfected cells; kept under Puromycin selection
# T1 sequence (Q12908 1-348): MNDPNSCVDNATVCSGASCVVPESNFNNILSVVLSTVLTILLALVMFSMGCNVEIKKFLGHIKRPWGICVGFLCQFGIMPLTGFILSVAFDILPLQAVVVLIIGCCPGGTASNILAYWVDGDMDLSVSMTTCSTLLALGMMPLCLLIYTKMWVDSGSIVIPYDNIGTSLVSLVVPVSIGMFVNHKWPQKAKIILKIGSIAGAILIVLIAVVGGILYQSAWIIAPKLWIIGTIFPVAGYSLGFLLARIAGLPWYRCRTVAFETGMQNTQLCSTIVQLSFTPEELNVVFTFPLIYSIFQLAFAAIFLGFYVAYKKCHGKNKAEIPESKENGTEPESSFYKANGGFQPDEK
# Experimental: IBAT (h/m) Assay Protocol
# 10,000 cells (Human or Mouse IBAT-overexpressing cells) were seeded in 96-wells plate (Corning CLS3809) in 200 μL MEM-alpha medium (Gibco 12571-063) supplemented with 10% FBS (Gibco 10438026) containing Puromycin (Gibco A1113803) (10 μg/mL) and incubated at 37° C. in 5% CO2 for 48 hours. After incubation, media was decanted from the wells and cells were washed two times with 300 μL of basal MEM-alpha medium (FBS-free). After decanting basal MEM-alpha medium each time, plates were tapped against paper towel to ensure maximum removal of residual media. Test inhibitor dilutions (highest test concentration being 10 μM, 3-fold serial dilution, 10 points) prepared in DMSO (Sigma D2650) were added in incubation mix (maintaining 0.2% final DMSO concentration) containing 0.25 μM 3H-taurocholic acid (ARC ART-1368) and 5 μM of cold taurocholic acid (Sigma T4009). 50 μL of incubation mix containing test inhibitors was then added to the wells (in duplicate) and the plates were incubated for 20 minutes in a CO2 incubator at 37° C. After incubation, the reaction was stopped by keeping the plates on ice water mix for 2-3 minutes and then the incubation mix was aspirated completely from the wells. The wells were washed two times with 250 μL of chilled unlabelled 1 mM taurocholic acid dissolved in HEPES (Gibco 15630080)-buffered (10 mM) HBSS (Gibco 14175079) (pH 7.4). The plates were tapped against a paper towel after every wash to ensure maximum removal of blocking buffer.
# (§1) 100 μL of MicroScint-20 (PerkinElmer 6013621) was added to the wells and kept overnight at RT before reading the plates in TopCount NXT™ Microplate Scintillation and Luminescence Counter from PerkinElmer under 3H Test protocol (set at 120 seconds reading time per well).
# (§2) Preparation of Test Compound Dilutions
# (§3) All test compounds were provided in powder form at RT. 10 mM DMSO stocks of the test compounds were prepared, aliquoted and stored at −20° C. From the 10 mM DMSO stock of the compounds, a 3-fold serial dilution in DMSO was prepared to get a total of 10 dilutions of the test compounds. 0.5 μL of this dilution in DMSO was added to 250 μL of FBS-free basal media containing 3H-taurocholic acid and cold taurocholic acid to prepare the incubation mixture.
# hLBAT = target: T2, hLBAT (Homo sapiens, UniProt Q14973); assay: LBAT (h/m) assay: 3H-taurocholic acid uptake in human LBAT-overexpressing cells; type: cell-based; settings: 0.3 μM 3H-taurocholic acid + 7.5 μM cold taurocholic acid, 20 minutes at 37° C.
# T2 construct: expressed in transfected cells; kept under Geneticin selection
# T2 sequence (Q14973 1-349): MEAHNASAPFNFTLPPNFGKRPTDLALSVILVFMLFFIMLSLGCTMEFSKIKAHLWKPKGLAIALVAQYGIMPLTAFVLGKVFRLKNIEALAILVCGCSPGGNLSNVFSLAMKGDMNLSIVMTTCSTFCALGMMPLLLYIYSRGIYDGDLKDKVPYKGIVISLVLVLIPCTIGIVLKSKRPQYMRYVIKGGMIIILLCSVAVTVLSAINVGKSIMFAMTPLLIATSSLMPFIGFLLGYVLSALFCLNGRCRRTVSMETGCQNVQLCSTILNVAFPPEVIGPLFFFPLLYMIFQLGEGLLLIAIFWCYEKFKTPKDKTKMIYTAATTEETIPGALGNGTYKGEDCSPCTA
# Experimental: LBAT (h/m) Assay Protocol
# 20,000 cells (Human or Mouse LBAT-overexpressing cells) were seeded in 96-wells plate (Corning CLS3809) in 100 μL MEM-alpha medium (Gibco 12571-063) supplemented with 10% FBS (Gibco 10438026) containing Geneticin (Gibco 10131-027) (1 mg/mL) and incubated at 37° C. in 5% CO2 for 24 hours. After incubation, media was decanted from the wells and cells were washed two times with 300 μL of basal MEM-alpha medium (FBS-free). After decanting basal MEM-alpha medium each time, plates were tapped against paper towel to ensure maximum removal of residual media. For human LBAT, incubation mix was prepared by adding test inhibitor dilutions (3-fold serial dilution in DMSO (Sigma D2650), 10 points) in MEM-alpha (without FBS) containing 0.3 μM 3H-taurocholic acid (ARC ART-1368) and 7.5 μM cold taurocholic acid (Sigma T4009) (maintaining 0.2% final DMSO concentration). For mouse LBAT, incubation mix was prepared by adding test inhibitor dilutions (3-fold serial dilution in DMSO, 10 points) in MEM-alpha (without FBS) containing 0.3 μM 3H-taurocholic acid and 25 μM cold taurocholic acid maintaining 0.2% final DMSO concentration). 50 μL of incubation mix containing test inhibitors was then added to the wells (in duplicate) and the plates were incubated for 20 minutes in a CO2 incubator at 37° C. After incubation, the reaction was stopped by keeping the plates on ice water mix for 2-3 minutes and then the incubation mix was aspirated completely from the wells. The wells were washed two times with 250 μL of chilled unlabelled 1 mM taurocholic acid dissolved in HEPES (Gibco 15630080)-buffered (10 mM) HBSS (Gibco 14175079) (pH 7.4). The plates were tapped against a paper towel after every wash to ensure maximum removal of blocking buffer.
# as §1, with “well, with normal plate orientation).” for “well).”
# as §2, §3
Compound,IC50 (hIBAT) [nM],IC50 (hLBAT) [nM]
"CCCCC1(CCCC)CN(c2ccccc2)c2cc(SC)c(CSCC(=O)O)cc2S(=O)(=O)C1 [Example 3, 2-(((3,3-dibutyl-7-(methylthio)-1,1-dioxido-5-phenyl-2,3,4,5-tetrahydro-1,5-benzothiazepin-8-yl)methyl)thio)acetic acid]",1.7,3370
"CCCCC1(CCCC)CN(c2ccccc2)c2cc(OC)c(CSC(C)(C)C(=O)O)cc2S(=O)(=O)C1 [Example 43, 2-(((3,3-dibutyl-7-methoxy-1,1-dioxido-5-phenyl-2,3,4,5-tetrahydro-1,5-benzothiazepin-8-yl)methyl)thio)-2-methylpropanoic acid]",861,251
"CCCCC1(CC)CN(c2ccccc2)c2cc(OC)c(CSCC(=O)O)cc2S(=O)(=O)C1 (single isomer, unassigned) [14, enantiomer 1]",1.1,> 1000
"CCCCC1(C)CN(c2ccccc2)c2cc(SC)c(CSC(C)(C)C(=O)O)cc2S(=O)(=O)C1 (racemic) [Example 18, 2-(((3-Butyl-3-methyl-7-(methylthio)-1,1-dioxido-5-phenyl-2,3,4,5-tetrahydro-1,5-benzothiazepin-8-yl)methyl)thio)-2-methylpropanoic acid]",404,135
"CCCCC1(C)CN(c2ccccc2)c2cc(OC)c(CSC(C)(C)C(=O)O)cc2S(=O)(=O)C1 (racemic) [Example 41, 2-(((3-butyl-7-methoxy-3-methyl-1,1-dioxido-5-phenyl-2,3,4,5-tetrahydro-1,5-benzothiazepin-8-yl)methyl)thio)-2-methylpropanoic acid]",> 1110,134
"CCCCC1(CC)CN(c2ccc(F)cc2)c2cc(SC)c(CSCC(=O)O)cc2S(=O)(=O)C1 (racemic) [Example 6, 2-(((3-butyl-3-ethyl-5-(4-fluorophenyl)-7-(methylthio)-1,1-dioxido-2,3,4,5-tetrahydro-1,5-benzothiazepin-8-yl)methyl)thio)acetic acid]",0.6,> 2200
"CCCCC1(CC)CN(c2ccccc2)c2cc(SC)c(CSCC(=O)O)cc2S(=O)(=O)N1C (stereo not drawn) [Example 20, 2-(((3-Butyl-3-ethyl-2-methyl-7-(methylthio)-1,1-dioxido-5-phenyl-2,3,4,5-tetrahydro-1,2,5-benzothiadiazepin-8-yl)methyl)thio)acetic acid]",522,2510
"CCCCC1(CC)CN(c2ccccc2)c2cc(OC)c(CSC(C)(C)C(=O)O)cc2S(=O)(=O)C1 (racemic) [Example 25, 2-(((3-butyl-3-ethyl-7-methoxy-1,1-dioxido-5-phenyl-2,3,4,5-tetrahydro-1,5-benzothiazepin-8-yl)methyl)thio)-2-methylpropanoic acid]",217,135
"CCCCC1(CCCC)CN(c2ccc(F)cc2)c2cc(OC)c(CSCC(=O)O)cc2S(=O)(=O)C1 [Example 32, 2-(((3,3-dibutyl-5-(4-fluorophenyl)-7-methoxy-1,1-dioxido-2,3,4,5-tetrahydro-1,5-benzothiazepin-8-yl)methyl)thio)acetic acid]",0.6,> 3330
"CCCCC1(C)CN(c2ccccc2)c2cc(OC)c(CSCC(=O)O)cc2S(=O)(=O)C1 (racemic) [Example 27, 2-(((3-butyl-7-methoxy-3-methyl-1,1-dioxido-5-phenyl-2,3,4,5-tetrahydro-1,5-benzothiazepin-8-yl)methyl)thio)acetic acid]",14,> 10000
"CCCCC1(CCCC)CN(c2ccccc2)c2cc(SC)c(CSCC(=O)O)cc2S(=O)(=O)N1 [Example 8, 2-(((3,3-dibutyl-7-(methylthio)-1,1-dioxido-5-phenyl-2,3,4,5-tetrahydro-1,2,5-benzothiadiazepin-8-yl)methyl)thio)acetic acid]",0.8,> 3330
"CCCCC1(CC)CN(c2ccc(F)cc2)c2cc(OC)c(CSCC(=O)O)cc2S(=O)(=O)C1 (single isomer, unassigned) [40, enantiomer 2]",36,> 10000
